Measured values as given in patent publication US9578875B2, “Fungicidal composition” (priority 2013, dated 2017).
Like-named read-outs stand apart in the source and are kept apart here.

Key:
[1] = format: physicochemical
Method: The following compositions comprising cyazofamid and Mancozeb were prepared, with the different stabilizers substituted. The AHS stability of these formulations was tested.
The formulation prepared according to Example 1 (adjusted for purity of the technical material) was modified to replace the HMT content with 1.0% sodium carbonate. The stability of both the formulations were tested, with the following results: […]

[2] = format: physicochemical; settings: for Cyazofamid Technical, 0 Day / Cyazofamid Technical, 14 Day: storage at 54° C.
Method: Experiment: Cyazofamid technical was mixed with Na2CO3 (Inorganic base) in one batch and with HMT (organic base) in the other. Both the samples were kept at 54° C. for 14 days. After 14 days, the cyazofamid content in both the samples was analyzed. […] The stability of cyazofamid technical was tested in the presence of an inorganic base and compared with the stability in the presence of an organic base, with the following results: […]

[3] = Example 1 formulation with HMT replaced by 1.0% Na2CO3
[4] = Example 1 formulation with HMT replaced by 1.0% Na2CO3, 14 D AHS at 54° C.
[5] = Example 1 formulation, presence of 1.0% HMT
[6] = Example 1 formulation, presence of 1.0% HMT, 14 D AHS at 54° C.

Molecule	Active content in formulation, 0 D [1, 3]	Active content in formulation, 14 D AHS at 54° C. [1, 4]	Degradation (%) [1, 4] [%]	Active content in formulation, 0 D [1, 5]	Active content in formulation, 14 D AHS at 54° C. [1, 6]	Degradation (%) [1, 6] [%]	Cyazofamid Technical, 0 Day ([2]; HMT 0.5%)	Cyazofamid Technical, 14 Day ([2]; HMT 0.5%)	Cyazofamid Technical, 0 Day ([2]; Na2CO3 0.5%)	Cyazofamid Technical, 14 Day ([2]; Na2CO3 0.5%)	Cyazofamid content, 0 D ([2]; Presence of 0.5% HMT)	Cyazofamid content, 14 D AHS at 54° C. ([2]; Presence of 0.5% HMT)	Cyazofamid content, 0 D ([2]; Presence of 0.5% Na2CO3)	Cyazofamid content, 14 D AHS at 54° C. ([2]; Presence of 0.5% Na2CO3)	drop in cyazofamid concentration upon accelerated storage (2 weeks at 54° C.) [%]	Degradation with respect to storage at ambient condition (14 days) [%]	Purity after 14 days of storage at 10° C. (glass bottle, air tight plug and cap, 10° C., 14 days)	Purity after 14 days of storage at 54 ± 2° C. (glass bottle, air tight plug and cap, 54 ± 2° C., 14 days)	Purity after 14 days, Room temperature (30-35° C.) (glass bottle, air tight plug and cap, room temperature (30-35° C.), 14 days)	Degradation (%) ([1]; 14 day)
Mancozeb	70.67 %, w/w	70.49 %, w/w	0.25	70.34 %, w/w	70.14 %, w/w	0.28														
Cc1ccc(-c2c(Cl)nc(C#N)n2S(=O)(=O)N(C)C)cc1 [Cyazofamid, 4-chloro-2-cyano-N,N-dimethyl-5-p-tolylimidazole-1-sulfonamide]	6.27 %, w/w	5.57 %, w/w		5.59 %, w/w	5.43 %, w/w		95.10	94.27	95.98	92.38	95.1 %, w/w	94.27 %, w/w	95.98 %, w/w	92.38 %, w/w	12.5	12.87	95.36	83.25	95.55	11.16
